Data published in patent US20210254056A1, “IDENTIFICATION AND TARGETED MODULATION OF GENE SIGNALING NETWORKS” (CAMP4 THERAPEUTICS CORPORATION, priority 2017, published 2021).

Tested on: hepatocytes
Experiment: RNA-seq of hepatocytes treated with Phase III failure compounds
Protocol: RNA-seq was performed to determine the effects of the compounds on hepatocytes.
Significance was determined by the criteria of FPKM≥0.5, a log 2(fold-change)≥1, and a […].

For `CCCCC(C(=O)c1ccccc1)N1CCCC1` (stereo not drawn) [a-PHP], the “significant changes in gene expression” value was “not observed to cause any significant changes in gene expression” and the “significant modulation of expression of any of the genes analyzed” value (RNA-seq, p≤0.05, hepatocytes) was “not observed to significantly modulate expression”.
For `COc1nc(N)nc2c1ncn2[C@@H]1O[C@H](COP(=O)(N[C@@H](C)C(=O)OCC(C)(C)C)Oc2cccc3ccccc23)[C@@H](O)[C@@]1(C)O` (stereo partly drawn) [bms-986094], the “Number (#) of genes having significantly changed expression” value was 2079.
For `COc1cc(Nc2ncc(F)c(Nc3ccc4c(n3)N(COP(=O)(O)O)C(=O)C(C)(C)O4)n2)cc(OC)c1OC` [fostamatinib], the “significant modulation of expression of disease genes” value (RNA-seq, q≤0.05, hepatocytes, genes in the value or listed in the block) was “significantly (q≤0.05) modulate expression”, the “effect on disease gene expression” value (RNA-seq, hepatocytes) was “effect on expression of too many disease genes” and the “RNA-seq results: A1BG expression” value (gene A1BG, hepatocytes) was 0.01. For the same compound, the “RNA-seq results: AGTR1 expression” value (gene AGTR1, hepatocytes) was 0.25, the “RNA-seq results: AGXT expression” value (gene AGXT, hepatocytes) was 0.45 and the “RNA-seq results: AHI1 expression” value (gene AHI1, hepatocytes) was 0.39. For the same compound, the “RNA-seq results: AMPD3 expression” value (gene AMPD3, hepatocytes) was −0.90, the “RNA-seq results: AMT expression” value (gene AMT, hepatocytes) was −0.28 and the “RNA-seq results: ANGPTL3 expression” value (gene ANGPTL3, hepatocytes) was 0.24. The “RNA-seq results: ANKS4B expression” value (gene ANKS4B, hepatocytes) was 0.49, the “RNA-seq results: ANKS6 expression” value (gene ANKS6, hepatocytes) was 0.03 and the “RNA-seq results: ANPEP expression” value (gene ANPEP, hepatocytes) was 0.49. The “RNA-seq results: AOC2 expression” value (gene AOC2, hepatocytes) was 0.64, the “RNA-seq results: APOA2 expression” value (gene APOA2, hepatocytes) was −0.31 and the “RNA-seq results: APOA5 expression” value (gene APOA5, hepatocytes) was 0.97. The “RNA-seq results: APOB expression” value (gene APOB, hepatocytes) was 1.87, the “RNA-seq results: COG5 expression” value (gene COG5, hepatocytes) was −0.12 and the “RNA-seq results: COG6 expression” value (gene COG6, hepatocytes) was 0.18. For the same compound, the “RNA-seq results: COL1A1 expression” value (gene COL1A1, hepatocytes) was −0.09, the “RNA-seq results: COX6A1 expression” value (gene COX6A1, hepatocytes) was 0.29 and the “RNA-seq results: CP expression” value (gene CP, hepatocytes) was −0.16. The “RNA-seq results: CPS1 expression” value (gene CPS1, hepatocytes) was −0.56, the “RNA-seq results: CPT1A expression” value (gene CPT1A, hepatocytes) was −0.03 and the “RNA-seq results: CPT2 expression” value (gene CPT2, hepatocytes) was 0.28. The “RNA-seq results: CROT expression” value (gene CROT, hepatocytes) was 0.19, the “RNA-seq results: CSPP1 expression” value (gene CSPP1, hepatocytes) was −0.09 and the “RNA-seq results: CTC1 expression” value (gene CTC1, hepatocytes) was 0.04. The “RNA-seq results: CTDSP2 expression” value (gene CTDSP2, hepatocytes) was −0.06, the “RNA-seq results: CTH expression” value (gene CTH, hepatocytes) was 0.15 and the “RNA-seq results: CTNS expression” value (gene CTNS, hepatocytes) was 0.1. The “RNA-seq results: CTSF expression” value (gene CTSF, hepatocytes) was 0.07, the “RNA-seq results: CTSK expression” value (gene CTSK, hepatocytes) was −0.13 and the “RNA-seq results: CYB5A expression” value (gene CYB5A, hepatocytes) was −0.01. For the same compound, the “RNA-seq results: CYB5R3 expression” value (gene CYB5R3, hepatocytes) was 0.05, the “RNA-seq results, CYP2B6 expression” value (gene CYP2B6, hepatocytes) was 0.55 and the “RNA-seq results: CYP2B6 expression” value (gene CYP2B6, hepatocytes) was −0.04. For the same compound, the “RNA-seq results, CYP2C19 expression” value (gene CYP2C19, hepatocytes) was 0.61, the “RNA-seq results: CYP2C19 expression” value (gene CYP2C19, hepatocytes) was −0.79 and the “RNA-seq results, CYP2D6 expression” value (gene CYP2D6, hepatocytes) was 0.31. For the same compound, the “RNA-seq results: CYP2D6 expression” value (gene CYP2D6, hepatocytes) was −0.01, the “RNA-seq results, CYP3A4 expression” value (gene CYP3A4, hepatocytes) was 3.59 and the “RNA-seq results: CYP3A4 expression” value (gene CYP3A4, hepatocytes) was 0.18. For the same compound, the “RNA-seq results, CYP7B1 expression” value (gene CYP7B1, hepatocytes) was 0.59, the “RNA-seq results: CYP7B1 expression” value (gene CYP7B1, hepatocytes) was −0.27 and the “RNA-seq results: CYP27A1 expression” value (gene CYP27A1, hepatocytes) was −0.03. For the same compound, the “RNA-seq results, CYP39A1 expression” value (gene CYP39A1, hepatocytes) was 1.11, the “RNA-seq results: CYP39A1 expression” value (gene CYP39A1, hepatocytes) was −0.23 and the “RNA-seq results: DAO expression” value (gene DAO, hepatocytes) was −0.06. For the same compound, the “RNA-seq results: DBT expression” value (gene DBT, hepatocytes) was −0.01, the “RNA-seq results: DCDC2 expression” value (gene DCDC2, hepatocytes) was −0.57 and the “RNA-seq results: DCXR expression” value (gene DCXR, hepatocytes) was 0.23. The “RNA-seq results: FABP1 expression” value (gene FABP1, hepatocytes) was −0.33, the “RNA-seq results: FADD expression” value (gene FADD, hepatocytes) was 0.17 and the “RNA-seq results: FAM111A expression” value (gene FAM111A, hepatocytes) was −0.14. For the same compound, the “RNA-seq results: FAM111B expression” value (gene FAM111B, hepatocytes) was 1.04, the “RNA-seq results: FAN1 expression” value (gene FAN1, hepatocytes) was 0.11 and the “RNA-seq results: FARS2 expression” value (gene FARS2, hepatocytes) was −0.7. For the same compound, the “RNA-seq results: FASLG expression” value (gene FASLG, hepatocytes) was −0.31, the “RNA-seq results: FGA expression” value (gene FGA, hepatocytes) was −0.24 and the “RNA-seq results: FGD1 expression” value (gene FGD1, hepatocytes) was 0.24. The “RNA-seq results: FGFR2 expression” value (gene FGFR2, hepatocytes) was −1.3, the “RNA-seq results: FIG4 expression” value (gene FIG4, hepatocytes) was −0.09 and the “RNA-seq results: FIS1 expression” value (gene FIS1, hepatocytes) was 0.19. For the same compound, the “RNA-seq results: FTCD expression” value (gene FTCD, hepatocytes) was −0.37, the “RNA-seq results: FTH1 expression” value (gene FTH1, hepatocytes) was 0.34 and the “RNA-seq results: FUCA1 expression” value (gene FUCA1, hepatocytes) was 0.04. For the same compound, the “RNA-seq results: FXN expression” value (gene FXN, hepatocytes) was −0.11, the “RNA-seq results: G6PC3 expression” value (gene G6PC3, hepatocytes) was 0.11 and the “RNA-seq results: G6PC expression” value (gene G6PC, hepatocytes) was −0.55. For the same compound, the “RNA-seq results: G6PD expression” value (gene G6PD, hepatocytes) was 0.55, the “RNA-seq results: GALK1 expression” value (gene GALK1, hepatocytes) was 0.19 and the “RNA-seq results: GALK2 expression” value (gene GALK2, hepatocytes) was 0.04. The “RNA-seq results: GALT expression” value (gene GALT, hepatocytes) was −0.13, the “RNA-seq results: GATA6 expression” value (gene GATA6, hepatocytes) was −0.12 and the “RNA-seq results: GATM expression” value (gene GATM, hepatocytes) was −0.13. For the same compound, the “RNA-seq results: GBA expression” value (gene GBA, hepatocytes) was 0.02, the “RNA-seq results: GBE1 expression” value (gene GBE1, hepatocytes) was −0.01 and the “RNA-seq results: GCH1 expression” value (gene GCH1, hepatocytes) was 0.04. For the same compound, the “RNA-seq results: GCKR expression” value (gene GCKR, hepatocytes) was −0.15, the “RNA-seq results: GCLC expression” value (gene GCLC, hepatocytes) was 0.18 and the “RNA-seq results: GOSH expression” value (gene GOSH, hepatocytes) was 0.18. The “RNA-seq results: RRM2B” value (gene RRM2B, hepatocytes) was 0.45, the “RNA-seq results: RSAD1” value (gene RSAD1, hepatocytes) was 0.22 and the “RNA-seq results: SAMHD1” value (gene SAMHD1, hepatocytes) was −0.22. The “RNA-seq results: SC5D” value (gene SC5D, hepatocytes) was 0.22, the “RNA-seq results: SCARB1” value (gene SCARB1, hepatocytes) was −0.40 and the “RNA-seq results: SCN9A” value (gene SCN9A, hepatocytes) was −0.97. For the same compound, the “RNA-seq results: SDCCAG8” value (gene SDCCAG8, hepatocytes) was 0.11, the “RNA-seq results: SEPN1” value (gene SEPN1, hepatocytes) was −0.18 and the “RNA-seq results: SERAC1” value (gene SERAC1, hepatocytes) was −0.05. The “RNA-seq results: SERPINA1” value (gene SERPINA1, hepatocytes) was 0.31, the “RNA-seq results: SERPING1” value (gene SERPING1, hepatocytes) was 0.27 and the “RNA-seq results: SERPINI1” value (gene SERPINI1, hepatocytes) was 0.67. For the same compound, the “RNA-seq results: SETBP1” value (gene SETBP1, hepatocytes) was −0.46, the “RNA-seq results: SFXN4” value (gene SFXN4, hepatocytes) was 0.01 and the “RNA-seq results: SLC10A1” value (gene SLC10A1, hepatocytes) was 0.97. The “RNA-seq results: SLC10A3” value (gene SLC10A3, hepatocytes) was −0.64, the “RNA-seq results: SLC10A5” value (gene SLC10A5, hepatocytes) was 1.23 and the “RNA-seq results: SLC10A7” value (gene SLC10A7, hepatocytes) was −0.12. For the same compound, the “RNA-seq results: SLC11A2” value (gene SLC11A2, hepatocytes) was −0.54, the “RNA-seq results: SLC19A1” value (gene SLC19A1, hepatocytes) was −0.37 and the “RNA-seq results: SLC19A2” value (gene SLC19A2, hepatocytes) was −0.01. The “RNA-seq results: SLC19A3” value (gene SLC19A3, hepatocytes) was 0.18, the “RNA-seq results: SLC22A1” value (gene SLC22A1, hepatocytes) was 0.16 and the “RNA-seq results: SLC22A5” value (gene SLC22A5, hepatocytes) was −0.46. The “RNA-seq results: SLC25A1” value (gene SLC25A1, hepatocytes) was −0.04, the “RNA-seq results: SLC25A10” value (gene SLC25A10, hepatocytes) was 0.24 and the “RNA-seq results: SLC25A12” value (gene SLC25A12, hepatocytes) was −0.27. For the same compound, the “RNA-seq results: SLC25A13” value (gene SLC25A13, hepatocytes) was 0.22, the “RNA-seq results: SLC25A15” value (gene SLC25A15, hepatocytes) was 1.61 and the “RNA-seq results: SLC25A19” value (gene SLC25A19, hepatocytes) was 0.07. The “RNA-seq results: SLC25A20” value (gene SLC25A20, hepatocytes) was 0.62, the “RNA-seq results: SLC25A29” value (gene SLC25A29, hepatocytes) was −0.40 and the “RNA-seq results: SLC25A32” value (gene SLC25A32, hepatocytes) was −0.06.
